Usually viability stands for a per cent measure of how many cells are alive, often set against a control. A higher viability goes with better survival.

Data set [1] has as its system Pigment producing cells derived from a mammalian melanoma. Description: In vitro melanocyte cell culture: melanin production (absorbance at 540 nm of melanin released into the medium). Type of data set: cell-based. To be noted: for activity at 300 µM: dihydrophloretin 0.3 mM; for activity at 100 µM: dihydrophloretin 0.1 mM; for activity at 230 µM: dihydrophloretin 0.23 mM; for melanin production as percentage of control / % pigmentation: 5760 min. Here is the method:
Test method--In vitro melanocyte cell culture Pigment producing cells derived from a mammalian melanoma are grown in culture by standard methods. Preferred cell lines are B16 or S-91 cells, but other lines or primary mouse or human melanocytes can be used. Melanoma cells are grown in cell culture medium such as RPMI 1640 (GIBCO) supplemented with fetal calf serum and glutamine to approximately 1/3 confluence. The active is dissolved in culture medium, the pH adjusted as required and sterile filtered. The solution is then added to the cells. The cells are cultured for a further period of 4 days and the amount of melanin produced assayed by measuring the absorbance at 540 nm of the melanin released into the medium. The above procedure was used to assess the ability of compositions of (a) dihydrophloretin alone and (b) dihydrophloretin plus retinol to reduce the amount of melanin produced.

A further data set is described as follows: in vitro. It counts as cell-based, mammalian. The note with it: melanoma cells. As to the method: (§1) Pigment producing cells derived from a mammalian melanoma are grown in culture by standard methods. Preferred cell lines are B16 or S-91 cells, but other lines or primary mouse or human melanocytes can be used.
(§2) Melanoma cells are grown in cell culture medium such as RPMI 1640 (GIBCO) supplemented with fetal calf serum and glutamine to approximately 1/3 confluence. The active is dissolved in culture medium, the pH adjusted as required and sterile filtered. The solution is then added to the cells.
(§3) Cell viability in the presence of the inhibitor is tested using neutral red (3-amino-7-dimethylamino-2-methyl phenazine hydrochloride) a water soluble vital dye which passes through the intact plasma membrane and becomes concentrated in lysosomes of viable cells. For any culture, the amount of dye taken up is proportional to the number of viable cells and agents that damage cell and lysosomal membranes inhibit dye incorporation.
(§4) The cells are incubated in 50 μg/ml neutral red solution for 3 hours at 37° C. in 5% CO2 in air. The solution is aspirated, the cells washed once in saline and to them added a solvent (50% H2 O, 49% ethanol, 1% acetic acid) to solubilise the dye. The amount of neutral red dye is quantified by measuring absorbance at 540 nm.
(§5) The above procedure was used to assess the ability of compositions of (a) dihydrophloretin alone and (b) dihydrophloretin plus retinol to reduce the amount of melanin produced.
(§6) The results for melanin production were calculated as percentages of control which contained medium alone. There was no effect on viability at the concentrations of actives reported.

Another data set concerns Melanoma cells. Put plainly: in vitro. It counts as cell-based, mammalian. Here is the method:
as §1, §2, §3, §4, §5, §6

Setting [2] is: Melanocyte, 96 h, Table 4, trans retinol 0, read-out: melanin production as percentage of control.
Setting [3] is: Melanocyte, 96 h, Table 5, retinol 0, n 3, read-out: % pigmentation.

Molecules are shown by their SMILES. Where two headings read alike, the source gives them in different places.

Turning to `CC1=C(/C=C/C(C)=C/C=C/C(C)=C/CO)C(C)(C)CCC1` [Trans Retinol, retinol, reference compound], the activity at 2 µM in data set [1] (Melanocyte, 96 h, Table 4, trans retinol 2.0 μm, dihydrophloretin 0, read-out: melanin production as percentage of control) turned out to be 121%; in data set [1] (Melanocyte, 96 h, Table 5, retinol 2.0 μM, dihydrophloretin 0.0, n 1, read-out: % pigmentation) it was 120%. In addition, the activity at 6.7 µM in data set [1] (Melanocyte, 96 h, Table 4, trans retinol 6.7 μm, dihydrophloretin 0, read-out: melanin production as percentage of control) came to 92.9%; in data set [1] (Melanocyte, 96 h, Table 5, retinol 6.7 μM, dihydrophloretin 0.0, n 2, read-out: % pigmentation), 97%. Further, the viability at 2 µM in the data set “in vitro” stood at 100%. Further, the viability at 6.7 µM in the data set “in vitro” came out at 100%. In addition, the cell viability result in the data set on Melanoma cells was “No adverse effects”.

With `Oc1ccc(CCC(O)c2c(O)cc(O)cc2O)cc1` (stereo not shown) [Dihydrophloretin, dihydrophloretin], in data set [1] (Melanocyte, 96 h, Table 3, dihydrophloretin 0.01 mM, 4 days, read-out: % of control melanin production), the activity at 10 µM came to 100%. Further, in data set [1] (Melanocyte, 96 h, Table 3, dihydrophloretin 0.03 mM, 4 days, read-out: % of control melanin production), the activity at 30 µM stood at 99.8%. Moreover, the activity at 300 µM in data set [1] (Melanocyte, 96 h, Table 3, 4 days, read-out: % of control melanin production) was found to be 57%; in data set [1] (setting [2]), 109%; in data set [1] (Melanocyte, 96 h, Table 5, retinol 0, n 4, read-out: % pigmentation), 94%. The values for the activity at 100 µM in data set [1] (setting [2]) and in data set [1] (setting [3]) were 98.1% and 99%, respectively. Moreover, in data set [1] (Melanocyte, 96 h, Table 4, dihydrophloretin 0.17 mM, trans retinol 0, read-out: melanin production as percentage of control), the activity at 170 µM was 109%. Besides, the activity at 230 µM in data set [1] (setting [2]) was found to be 109%; in data set [1] (setting [3]) it was 104%. For the same compound, the “melanin production as percentage of control” value is 120.2 % of control in data set [1] (Table 4, dihydrophloretin 0.1 mM plus trans retinol 2.0 μm); 82.1 % of control in data set [1] (Table 4, dihydrophloretin 0.1 mM plus trans retinol 6.7 μm, *significantly less (P<0.05) than Control); 111.0 % of control in data set [1] (Table 4, dihydrophloretin 0.17 mM plus trans retinol 2.0 μm); 76.0 % of control in data set [1] (Table 4, dihydrophloretin 0.17 mM plus trans retinol 6.7 μm, *significantly less (P<0.05) than Control); 110.0 % of control in data set [1] (Table 4, dihydrophloretin 0.23 mM plus trans retinol 2.0 μm); 60.9 % of control in data set [1] (Table 4, dihydrophloretin 0.23 mM plus trans retinol 6.7 μm, *significantly less (P<0.05) than Control). The “melanin production as percentage of control” value in data set [1] (Table 4, dihydrophloretin 0.3 mM plus trans retinol 2.0 μm) was 104.0 % of control; in data set [1] (Table 4, dihydrophloretin 0.3 mM plus trans retinol 6.7 μm, *significantly less (P<0.05) than Control), 34.0 % of control. Besides, the “% pigmentation” value was found to be 120% in data set [1] (Table 5, dihydrophloretin 0.1 mM plus retinol 2.0 μM, n 1); 86% in data set [1] (Table 5, dihydrophloretin 0.1 mM plus retinol 6.7 μM, n 2); 111% in data set [1] (Table 5, dihydrophloretin 0.17 mM plus retinol 2.0 μM, n 1); 73% in data set [1] (Table 5, dihydrophloretin 0.17 mM plus retinol 6.7 μM, n 2); 110% in data set [1] (Table 5, dihydrophloretin 0.23 mM plus retinol 2.0 μM, n 1); 55% in data set [1] (Table 5, dihydrophloretin 0.23 mM plus retinol 6.7 μM, n 2). Moreover, the “% pigmentation” value in data set [1] (Table 5, dihydrophloretin 0.3 mM plus retinol 6.7 μM, n 1) is reported as 34%. Also, the viability at 100 µM in the data set “in vitro” is 100%. This compound gave a viability at 170 µM in the data set “in vitro” of 100%. In “in vitro”, this compound had a viability at 230 µM of 100%. This compound registered a viability at 300 µM in “in vitro” of 100%. In addition, in the data set on Melanoma cells, the cell viability entry was “No adverse effects”.

The record behind these values is patent US5545399A, “Cosmetic composition” (Chesebrough-Pond's USA Co., priority 1993, dated 1996).
